Legend:
[1] = cited from earlier work
[2] = Biodistribution in several tissues in rabbits, NaI scintillation counter; type: in vivo; conditions: 3 hours after injection, ear vein
Procedure: The complex of Example 1 was injected in the ear vein of a series of rabbits. The rabbits were killed 3 hours after injection. The radiation of several tissues was quantified by counting using a NaI scintillation counter.

[3] = Biodistribution in several tissues in rats, NaI scintillation counter; type: in vivo; conditions: 2 hours, ~1 mCi, tail vein
Procedure: The Tc-complex of Example 1 (50 μl, ~1 mCi) was injected into the tail vein of a series of rats. The animals were killed after 2 hours and the radiation from several tissues was quantitated using a NaI scintillation counter.

| Compound | accumulation by bone ([1]; after intravenous administration) | biological half life ([1]; in vivo) | Ratio Femur/blood [2] | Ratio Femur/muscle [2] | radiation in Blood [2] | radiation in Femur [2] | radiation in Liver [2] | radiation in Muscle [2] | Percent Dose/Organ, Blood [3] | Percent Dose/Organ, Skeleton [3] | Percent Dose/Organ, Urine [3] | Ratio Bone/blood [3] | Ratio Bone/muscle [3] |
| --- | --- | --- | --- | --- | --- | --- | --- | --- | --- | --- | --- | --- | --- |
| [85Sr] [Sr-85, Strontium-85] | rapidly accumulated by bone | ~ 800 days | – | – | – | – | – | – | – | – | – | – | – |
| methylenediphosphonate [Tc-MDP] | – | – | 44 | 114 | 0.13 | 5.7 | 0.11 | 0.05 | 0.27 Percent Dose/Organ | 39.4 Percent Dose/Organ | 50.9 Percent Dose/Organ | 146 | 150 |

Source: US4508704A, “Radioactive metals complexed with phosphonate derivatives of bicycloheptane bis(alkylamines)” (The Dow Chemical Company, priority 1984, dated 1985)
